Read-outs that look alike come from different tables or passages of the source.
How the values were obtained:
[1] = Reducing power activity (iron (III) to iron (II) reduction); conditions: absorbance at 700 nm; mean ± SD of triplicate
Experimental: • ○ Reducing Power Activity (Iron (III) to iron (II) reduction) Reducing power was determined according to a previously described procedure. The absorbance was measured spectrophotometrically at 700 nm and calculation was carried out using the following formula:Reducing power (%) = [(AA − AB)/AA] × 100(3) where AA = sample absorbance; AB = control absorbance.

[2] = DPPH radical scavenging activity; conditions: absorbance at 517 nm after 10 min; mean ± SD of triplicate
Experimental: The scavenging activity on the DPPH radical of samples was determined by measuring the decrease in the DPPH maximum absorbency at 517 nm after 10 min [64] and was calculated as follows:radical scavenging activity (%) = [(AB − AA)/AB] × 100(2) where: AB = control absorbance and AA = sample absorbance.

[3] = molecular target: T1, α-amylase from hog pancreas (EC 3.2.1.1) (Sus scrofa, UniProt P00690); assay: α-Amylase inhibition assay; format: biochemical; conditions: hog pancreas enzyme, starch substrate, 37 °C, DNS, pH 6.9; mean ± SD of triplicate
T1 construct: from tissue; host or cells: hog pancreas
T1 sequence (P00690 16-511): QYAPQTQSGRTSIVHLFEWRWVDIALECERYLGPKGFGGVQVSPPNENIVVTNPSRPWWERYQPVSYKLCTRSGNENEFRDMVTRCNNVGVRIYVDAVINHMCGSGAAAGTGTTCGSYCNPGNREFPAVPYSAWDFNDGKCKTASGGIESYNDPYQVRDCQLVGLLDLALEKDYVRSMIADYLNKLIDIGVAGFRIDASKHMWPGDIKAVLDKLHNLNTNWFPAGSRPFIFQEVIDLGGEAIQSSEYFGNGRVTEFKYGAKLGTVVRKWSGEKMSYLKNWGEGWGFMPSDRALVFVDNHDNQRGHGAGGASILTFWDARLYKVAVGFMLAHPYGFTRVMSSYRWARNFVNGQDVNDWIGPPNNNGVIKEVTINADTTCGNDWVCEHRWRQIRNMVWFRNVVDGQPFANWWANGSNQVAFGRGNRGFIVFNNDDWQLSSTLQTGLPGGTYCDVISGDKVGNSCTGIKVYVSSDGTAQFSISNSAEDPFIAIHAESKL
Experimental: The α-amylase inhibition assay was performed according to the Ranilla method, which was slightly modified. Thus, 100 μL of extract was mixed with 250 μL of α-amylase from hog pancreas (EC 3.2.1.1) (0.5 mg/mL in 0.02 M sodium phosphate buffer, pH 6.9 with 0.006 M NaCl) and was incubated at 37 °C for 20 min; then, 250 μL of starch solution (1% in sodium phosphate buffer) was added, and the mixture was incubated at 37 °C for 30 min; then, 500 μL of dinitrosalicylic acid (DNS) was added and the mixture was boiled for 5 min. Finally, 5 mL of distilled water was added to the reaction mixture. […] The calculation of the results was carried out using the following formula:(4) % Amylase inhibition=ΔAcontrol−ΔAsample/ΔAcontrol × 100
(§1) The IC50 values were calculated via the linear regression analysis. Significant statistical differences were considered at p < 0.05.

[4] = molecular target: T2, lipoxygenase (EC 1.13.11.12) (Glycine max, UniProt P08170); assay: Lipoxygenase inhibition assay; format: biochemical; conditions: 234 nm, mean ± SD of triplicate
T2 sequence (P08170 1-839): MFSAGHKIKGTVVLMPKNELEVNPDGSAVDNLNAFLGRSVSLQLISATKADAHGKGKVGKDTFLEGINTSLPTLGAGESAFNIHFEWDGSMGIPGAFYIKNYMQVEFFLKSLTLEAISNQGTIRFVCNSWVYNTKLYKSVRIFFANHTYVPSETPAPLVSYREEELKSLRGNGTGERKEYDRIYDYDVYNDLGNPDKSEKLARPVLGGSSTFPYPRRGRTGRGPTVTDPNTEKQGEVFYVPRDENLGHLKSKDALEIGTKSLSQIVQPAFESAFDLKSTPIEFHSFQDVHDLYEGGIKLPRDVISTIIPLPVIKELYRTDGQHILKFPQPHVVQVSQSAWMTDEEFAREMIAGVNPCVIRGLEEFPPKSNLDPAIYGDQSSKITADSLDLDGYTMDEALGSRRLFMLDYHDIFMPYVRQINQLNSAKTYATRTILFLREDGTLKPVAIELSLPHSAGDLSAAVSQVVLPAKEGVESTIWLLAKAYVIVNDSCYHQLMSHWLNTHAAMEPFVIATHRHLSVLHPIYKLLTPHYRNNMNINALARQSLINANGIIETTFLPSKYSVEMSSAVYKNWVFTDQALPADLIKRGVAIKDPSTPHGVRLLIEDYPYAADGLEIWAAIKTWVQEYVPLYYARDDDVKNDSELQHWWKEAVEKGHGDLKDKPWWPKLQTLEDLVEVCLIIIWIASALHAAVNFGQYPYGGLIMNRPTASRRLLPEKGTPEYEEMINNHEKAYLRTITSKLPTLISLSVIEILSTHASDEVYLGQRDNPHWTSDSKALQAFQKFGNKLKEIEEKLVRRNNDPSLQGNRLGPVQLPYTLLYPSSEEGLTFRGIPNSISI
Experimental: as §1

[5] = molecular target: α-glucosidase from Saccharomyces cerevisiae (EC 3.2.1.20) (Saccharomyces cerevisiae, UniProt P53341); assay: α-Glucosidase inhibition assay; format: biochemical
Experimental: as §1

[6] = linoleic acid substrate, read-out: Inhibition of LOX IC50 (converted)

α-glucosidase from Saccharomyces cerevisiae (EC 3.2.1.20), sequence (P53341 whole entry): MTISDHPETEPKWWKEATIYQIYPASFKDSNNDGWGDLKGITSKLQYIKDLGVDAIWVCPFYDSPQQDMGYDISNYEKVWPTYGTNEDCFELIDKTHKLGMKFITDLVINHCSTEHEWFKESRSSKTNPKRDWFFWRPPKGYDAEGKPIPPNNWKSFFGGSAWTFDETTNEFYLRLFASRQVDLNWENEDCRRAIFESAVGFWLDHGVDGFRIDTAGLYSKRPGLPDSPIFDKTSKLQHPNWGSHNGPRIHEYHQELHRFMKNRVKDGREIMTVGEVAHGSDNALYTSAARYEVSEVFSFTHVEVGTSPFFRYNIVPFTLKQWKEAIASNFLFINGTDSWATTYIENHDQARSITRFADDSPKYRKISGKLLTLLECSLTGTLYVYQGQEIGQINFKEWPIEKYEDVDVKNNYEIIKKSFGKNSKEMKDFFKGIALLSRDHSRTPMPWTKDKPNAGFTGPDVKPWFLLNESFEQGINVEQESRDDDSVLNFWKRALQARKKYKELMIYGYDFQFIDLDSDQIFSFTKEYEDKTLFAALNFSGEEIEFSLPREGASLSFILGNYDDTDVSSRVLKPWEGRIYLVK

Row | SMILES | IC50 [3] | IC50 [4, 6] | other results
1 | O=C1O[C@H]([C@@H](O)CO)C(O)=C1O [Ascorbic acid] | – | – | Reducing Power % [1]: 34.5 ± 1.3%; % DPPH Inhibition [2]: 96.9 ± 3.6%
2 | O=C(/C=C/c1ccc(O)c(O)c1)O[C@@H]1C[C@](O)(C(=O)O)C[C@@H](O)[C@H]1O [Chlorogenic acid] | 5.36 µM | 73.7 µM | –
3 | O=C(/C=C/c1ccc(O)c(O)c1)O[C@H](Cc1ccc(O)c(O)c1)C(=O)O [Rosmarinic acid] | 2.5 µM | – | IC50 [5]: 0.5 µM; IC50 ([4]; Inhibition of LOX IC50, linoleic acid substrate): 84.1 µM
4 | C[C@@H]1O[C@@H](OC[C@H]2O[C@@H](Oc3c(-c4ccc(O)c(O)c4)oc4cc(O)cc(O)c4c3=O)[C@H](O)[C@@H](O)[C@@H]2O)[C@H](O)[C@H](O)[C@H]1O [Rutin] | – | 36.6 µM | –
